In brackets after ≈: the same amount, converted by molar mass. Several values for one entry are separate records, joined by “and”; a condition that tells them apart may be missing. Equal entries are not always repeated.
How the values were obtained:
[1] = Solubility in simulated gastrointestinal fluids (SGF, FeSSIF, FaSSIF) at 37° C.; assay type: physicochemical; settings: for Solubility: 37° C.
Description: The solubilities of Compound A and p-toluenesulfonate (Sample 5, crystal form I) in simulated gastrointestinal fluids (SGF, FeSSIF and FaSSIF) at 37° C. were tested.
About 7.5 mg of Compound A and p-toluenesulfonate were separately added to 1.5 mL of three biological vehicles to prepare suspensions. All the suspensions were placed in a shaker at 37° C. and shaken at 200 rpm for 24 h, and about 0.5 mL was sampled separately at 0.5 h, 2 h and 24 h for filtration. The obtained filtrates were subjected to HPLC analysis and pH measurement, and the filter cakes were respectively measured by XRPD.

[2] = Solid stability, 40° C./75% RH and 60° C., one week (HPLC purity, XRPD); assay type: physicochemical; settings: solid
Description: Appropriate amounts of Compound A and p-toluenesulfonate of Compound A (Sample 5, crystal form I) were respectively placed in 40° C./75% RH and 60° C. environments for one week to determine solid stability. At days 0 and 7, HPLC purity analysis and solid XRPD determination were carried out, and some of the results were as shown in Table 7.

[3] = tested on: human-derived lymphoma DoHH-2 cell line; assay: Human-derived lymphoma DoHH-2 subcutaneous xenograft in CB17/SCID female immunodeficient mice; assay type: in vivo, mouse; settings: 50 mg/kg p.o. BID, Day 24
Description: In Example 8, the anti-tumor effects of p-toluenesulfonate of Compound A at various dosages by intragastric administration on human-derived lymphoma DoHH-2 cell line subcutaneous transplantation CB17/SCID female immunodeficient mouse model were evaluated.
7-9-week-old CB17/SCID female immunodeficient mice were subcutaneously inoculated with […] DoHH-2 cells to establish a subcutaneous human lymphoma xenograft tumor model. When the average tumor volume in the mice reached 68 mm^3, the mice were randomly divided into groups and dosed on the day of grouping. The treatment method for each treatment group and vehicle control group was as follows:
p-toluenesulfonate of Compound A (Sample 6), given 100 mg/kg (p.o. QD) group, once daily, for 25 days (days 0-24);
p-toluenesulfonate of Compound A (Sample 6), given 30 mg/kg (p.o. QD) group, once daily, for 25 days (days 0-24);
positive treatment group (Duvelisib, purchased from Shanghai Lollane biological technology Co., Ltd.), given 50 mg/kg (p.o. BID) twice daily with an interval of 12 h, for 24 days; and
vehicle control group (5% DMSO/40% PEG400/55% water, by volume) (p.o. QD), given once daily, for 25 days (days 0-24).
There were 10 mice in each group, and all the mice were administered starting on the day of grouping (Day 0) and euthanized on Day 24 after grouping (Day 24). The efficacy was evaluated according to the tumor volume at the end point of the experiment.
The abbreviation p.o. stood for oral gavage, QD stood for once daily, and BID stood for twice daily.
The relative tumor inhibition rate (TGI) was calculated by the following formula: […]
T and C were respectively the average tumor volumes in the experimental group and the vehicle control group at a specific time point.

C[C@H](Nc1nc(N)nc(N)c1C#N)c1cc2ccc(F)cc2nc1-c1ccccn1 [Compound A]
pH of filtrate ([1]; FaSSIF (pH 6.52), 0.5 h): 6.55
pH of filtrate ([1]; FaSSIF (pH 6.52), 2 h): 6.51
pH of filtrate ([1]; FaSSIF (pH 6.52), 24 h): 6.34
solubility at 30 min ([1]; FaSSIF, 37 °C, pH 6.52, fassif, thermodynamic from solid, FaSSIF (pH 6.52), 30 min): 370 µg/mL (≈ 924 µM)
solubility at 2 h ([1]; FaSSIF, 37 °C, pH 6.52, fassif, thermodynamic from solid, FaSSIF (pH 6.52), 2 h): 320 µg/mL (≈ 799 µM)
solubility at 24 h ([1]; FaSSIF, 37 °C, pH 6.52, fassif, thermodynamic from solid, FaSSIF (pH 6.52), 24 h): 350 µg/mL (≈ 874 µM)
Solubility ([1]; FeSSIF (pH 4.99), 30 min): 2060 µg/mL (≈ 5140 µM)
Solubility ([1]; FeSSIF (pH 4.99), 2 h): 1890 µg/mL (≈ 4720 µM)
Solubility ([1]; FeSSIF (pH 4.99), 24 h): 2200 µg/mL (≈ 5490 µM)
pH of filtrate ([1]; FeSSIF (pH 4.99), 0.5 h): 5.00
pH of filtrate ([1]; FeSSIF (pH 4.99), 2 h): 4.94
pH of filtrate ([1]; FeSSIF (pH 4.99), 24 h): 4.86
Solubility ([1]; SGF (pH 1.21), 30 min): >4920 µg/mL
Solubility ([1]; SGF (pH 1.21), 2 h): >4910 µg/mL
Solubility ([1]; SGF (pH 1.21), 24 h): >4830 µg/mL
pH of filtrate ([1]; SGF (pH 1.21), 0.5 h): 1.19
pH of filtrate ([1]; SGF (pH 1.21), 2 h): 1.16
pH of filtrate ([1]; SGF (pH 1.21), 24 h): 1.18
Purity (peak area %) Average - 40° C./75% RH - 7 d ([2]; 40° C./75% RH, 7 d, average): 98.49 peak area %
Purity (peak area %) 40° C./75% RH - 7 d ([2]; 40° C./75% RH, 7 d, single determinations): 98.52 peak area % and 98.45 peak area %
Purity (peak area %) Average - 60° C. - 7 d ([2]; 60° C., 7 d, average): 98.43 peak area %
Purity (peak area %) 60° C. - 7 d ([2]; 60° C., 7 d, single determinations): 98.37 peak area % and 98.50 peak area %
decrease of chemical purity ([2]; 60° C., 7 days): about 0.16%
Purity (peak area %) Average - 0 d ([2]; day 0, average): 98.59 peak area %
Purity (peak area %) 0 d ([2]; day 0, single determinations): 98.63 peak area % and 98.55 peak area %

C[C@H](Nc1ncnc2nc[nH]c12)c1cc2cccc(Cl)c2c(=O)n1-c1ccccc1 [Duvelisib, reference compound]
average tumor volume [3]: 1496.12 mm^3
relative tumor inhibition rate (TGI) [3]: 30%

— US20240182407A1, “QUINOLINE COMPOUND SALT OR CRYSTAL FORM, PREPARATION METHOD THEREFOR, AND APPLICATION THEREOF” (Nanjing Zenshine Pharmaceuticals Co., Ltd., priority 2021, published 2024)
